Legend:
[1] = tested on: GluN2C- and GluN2D-containing receptors; assay: TEVC recordings, values stated in text jointly for GluN2C/D; format: cell-based, rat; conditions: for maximum potentiation at GluN2C/D: fitted max, range over GluN2C and GluN2D, saturating co-agonists; for activity at GluN2C/D in words: TEVC evaluation; for p(doubling conc.) at GluN2C/D / pEC50 at GluN2C/D: value or range over GluN2C and GluN2D
[2] = tested on: GluN2A- or GluN2B-containing receptors; assay: TEVC recordings, values stated jointly for GluN2A/B; format: cell-based, rat; conditions: 10 or 30 μM compound
[3] = pharmacokinetics in mice, i.p. dosing, plasma and brain by LC/MS-MS; conditions: male, C57Bl/6, mouse, ip, 10 mg/kg
[4] = plasma protein binding by equilibrium dialysis; format: in vitro ADME, rat; conditions: 1 μM of drug
[5] = stability as a powder or DMSO stock; format: physicochemical; conditions: room temperature under regular atmosphere; longest time tested
α4β2-nACh = format: cell-based; conditions: 10 μM compound, saturating agonist
GluN1/GluN2C [6] = molecular target: GluN1/GluN2C (Rattus norvegicus, UniProt P35439+Q00961); assay: cell-based
[7] = molecular target: GluN2A-containing receptors; conditions: cited from earlier work
GluN1/GluN2C [8] = molecular target: GluN1/GluN2C (Rattus norvegicus, UniProt Q00961); conditions: percent of control, 100 μM glutamate and 30 μM glycine
GluN1/GluN2D = GluN1/GluN2D (Rattus norvegicus, UniProt Q62645); conditions: percent of control, 100 μM glutamate and 30 μM glycine
[9] = 20 mg/kg i.p., cited from earlier work

GluN1/GluN2C (Rattus norvegicus, UniProt P35439+Q00961), sequence (Q00961 20-1237, other chains not shown): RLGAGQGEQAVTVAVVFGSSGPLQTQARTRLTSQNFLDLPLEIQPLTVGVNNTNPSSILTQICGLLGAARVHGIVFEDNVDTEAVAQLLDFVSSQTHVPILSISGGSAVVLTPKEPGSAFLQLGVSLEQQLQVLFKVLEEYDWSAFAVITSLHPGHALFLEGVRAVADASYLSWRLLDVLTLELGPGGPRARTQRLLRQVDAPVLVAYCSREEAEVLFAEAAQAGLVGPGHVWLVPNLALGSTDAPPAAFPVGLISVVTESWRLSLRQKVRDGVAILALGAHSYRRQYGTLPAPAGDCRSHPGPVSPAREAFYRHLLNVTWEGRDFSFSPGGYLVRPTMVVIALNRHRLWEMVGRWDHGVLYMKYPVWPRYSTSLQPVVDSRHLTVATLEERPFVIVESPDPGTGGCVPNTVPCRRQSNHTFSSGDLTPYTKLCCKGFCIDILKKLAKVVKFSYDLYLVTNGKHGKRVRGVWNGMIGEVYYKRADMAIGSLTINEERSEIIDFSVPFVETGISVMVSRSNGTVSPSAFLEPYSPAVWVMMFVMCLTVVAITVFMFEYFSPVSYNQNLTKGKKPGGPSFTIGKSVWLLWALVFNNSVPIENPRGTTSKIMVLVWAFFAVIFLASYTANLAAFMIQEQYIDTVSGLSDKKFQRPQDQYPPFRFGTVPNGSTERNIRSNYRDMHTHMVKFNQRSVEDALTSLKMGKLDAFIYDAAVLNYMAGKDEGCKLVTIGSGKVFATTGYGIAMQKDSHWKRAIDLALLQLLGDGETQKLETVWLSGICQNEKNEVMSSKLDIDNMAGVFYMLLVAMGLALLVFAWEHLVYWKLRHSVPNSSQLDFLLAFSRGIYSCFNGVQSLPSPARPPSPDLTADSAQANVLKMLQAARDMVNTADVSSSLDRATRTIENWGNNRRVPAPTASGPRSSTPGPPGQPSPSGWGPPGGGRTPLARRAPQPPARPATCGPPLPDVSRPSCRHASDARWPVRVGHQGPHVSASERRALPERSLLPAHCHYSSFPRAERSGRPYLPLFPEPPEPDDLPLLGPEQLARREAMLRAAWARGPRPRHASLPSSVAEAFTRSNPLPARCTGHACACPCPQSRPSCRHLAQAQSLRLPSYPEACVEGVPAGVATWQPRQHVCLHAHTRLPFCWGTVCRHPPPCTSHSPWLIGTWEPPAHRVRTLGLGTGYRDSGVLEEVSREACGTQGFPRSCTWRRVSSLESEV
GluN1/GluN2C (Rattus norvegicus, UniProt Q00961), sequence (Q00961 20-1237, other chains not shown): as above
GluN1/GluN2D, sequence (Q62645 28-1323, other chains not shown): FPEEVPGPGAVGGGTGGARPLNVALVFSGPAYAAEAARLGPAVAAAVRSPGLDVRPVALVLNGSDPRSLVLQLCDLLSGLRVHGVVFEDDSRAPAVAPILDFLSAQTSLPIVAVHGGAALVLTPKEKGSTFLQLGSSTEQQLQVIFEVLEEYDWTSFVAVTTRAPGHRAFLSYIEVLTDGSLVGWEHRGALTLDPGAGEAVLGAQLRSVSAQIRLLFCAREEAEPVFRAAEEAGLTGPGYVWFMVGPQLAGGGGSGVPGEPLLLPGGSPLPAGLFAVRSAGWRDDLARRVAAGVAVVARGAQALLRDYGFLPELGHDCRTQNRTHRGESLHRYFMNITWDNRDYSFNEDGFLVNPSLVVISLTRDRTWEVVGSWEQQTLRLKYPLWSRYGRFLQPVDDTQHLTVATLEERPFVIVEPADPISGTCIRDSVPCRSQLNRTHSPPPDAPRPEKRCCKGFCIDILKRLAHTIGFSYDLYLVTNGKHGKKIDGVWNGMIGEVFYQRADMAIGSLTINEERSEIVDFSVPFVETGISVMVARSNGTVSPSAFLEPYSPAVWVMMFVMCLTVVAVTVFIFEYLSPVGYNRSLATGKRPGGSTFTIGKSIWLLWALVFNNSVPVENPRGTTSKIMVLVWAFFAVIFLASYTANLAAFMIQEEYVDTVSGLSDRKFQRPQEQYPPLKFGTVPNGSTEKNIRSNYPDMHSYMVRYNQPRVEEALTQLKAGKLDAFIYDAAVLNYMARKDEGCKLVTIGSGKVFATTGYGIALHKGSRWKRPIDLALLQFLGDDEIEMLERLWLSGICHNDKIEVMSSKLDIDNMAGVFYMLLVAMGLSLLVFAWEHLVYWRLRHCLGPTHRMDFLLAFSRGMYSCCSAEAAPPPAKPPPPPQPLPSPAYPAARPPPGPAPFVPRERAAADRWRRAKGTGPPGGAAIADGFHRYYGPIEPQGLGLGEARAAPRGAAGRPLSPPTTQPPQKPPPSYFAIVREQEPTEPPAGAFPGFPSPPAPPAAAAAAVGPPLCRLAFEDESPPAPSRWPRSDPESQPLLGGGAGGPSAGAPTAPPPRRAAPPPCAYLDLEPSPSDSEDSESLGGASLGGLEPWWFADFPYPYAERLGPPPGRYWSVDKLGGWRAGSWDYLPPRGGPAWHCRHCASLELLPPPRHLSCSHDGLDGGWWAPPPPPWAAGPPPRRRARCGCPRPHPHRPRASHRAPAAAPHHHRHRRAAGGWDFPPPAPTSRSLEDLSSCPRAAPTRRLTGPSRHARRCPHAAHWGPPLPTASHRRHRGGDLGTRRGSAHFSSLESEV

Compound: COc1ccc(OCC2c3ccsc3CCN2C(=O)c2cccc(Cl)c2)cc1 (stereo not shown) [25h, (3-Chlorophenyl)(4-((4-methoxyphenoxy)methyl)-6,7-dihydrothieno[3,2-c]pyridin-5(4H)-yl)methanone]
- maximum potentiation at GluN2C/D [1]: 330–340%

Compound: COc1ccc(OCC2c3cc(OC)c(OC)cc3CCN2C(=O)c2cccc(Cl)c2)s1 (stereo not shown) [18a, (3-Chlorophenyl)(6,7-dimethoxy-1-(((5-methoxythiophen-2-yl)-oxy)methyl)-3,4-dihydroisoquinolin-2(1H)-yl)methanone]
- activity at GluN2C/D in words [1]: not tolerated

Compound: COc1ccc(OCC2c3sccc3CCN2C(=O)c2cccc(Cl)c2)cc1 (stereo not shown) [25a, (3-Chlorophenyl)(7-((4-methoxyphenoxy)methyl)-4,7-dihydrothieno[2,3-c]pyridin-6(5H)-yl)methanone]
- activity at GluN2A/B in words [2]: no activity
- maximum potentiation at GluN2C/D [1]: 280–350%
- p(doubling conc.) at GluN2C/D [1]: 5.3–5.6

Compound: COc1ccc(OCC2c3cnn(C)c3CCN2C(=O)c2cccc(Cl)c2)cc1 (stereo not shown) [25g, (3-Chlorophenyl)(4-((4-methoxyphenoxy)methyl)-1-methyl-1,4,6,7-tetrahydro-5H-pyrazolo[4,3-c]pyridin-5-yl)methanone]
- pEC50 at GluN2C/D [1]: < 4.5

Compound: COc1ccc(OCC2c3cccn3CC(=O)N2Cc2cccc(F)c2)cc1 (stereo not shown) [EU-1180–453, 2-(3-Fluorobenzyl)-1-((4-methoxyphenoxy)methyl)-1,2-dihydropyrrolo[1,2-a]pyrazin-3(4H)-one]
- Tmax ([3]; brain and plasma): 15 min
- Cmax ([3]; plasma): 695 ± 111 ng/mL
- bound to rat plasma protein [4]: 98.7%
- stable as a powder or a DMSO stock [5]: at least 30 days

Compound: COc1ccc(OCC2c3occc3CCN2C(=O)c2cccc(Cl)c2)cc1 (stereo not shown) [25f, (3-Chlorophenyl)(7-((4-methoxyphenoxy)methyl)-4,7-dihydrofuro[2,3-c]pyridin-6(5H)-yl)methanone]
- p(doubling conc.) at GluN2C/D [1]: 5.4–5.5

Compound: COc1ccc(OCC2c3ccc(OC)cc3CC(=O)N2CC(F)(F)F)cc1 (stereo not shown) [12g, 6-Methoxy-1-((4-methoxyphenoxy)methyl)-2-(2,2,2-trifluoroethyl)-1,2-dihydroisoquinolin-3(4H)-one]
- pEC50 at GluN2C/D [1]: < 4.5

Compound: COc1cc2c(cc1OC)C(CO)N(C(=O)c1cccc(C(F)(F)F)c1)CC2 (stereo not shown) [17b, (1-(Hydroxymethyl)-6,7-dimethoxy-3,4-dihydroisoquinolin-2(1H)-yl)(3-(trifluoromethyl)phenyl)methanone]
- activity at GluN2C/D in words [1]: not tolerated

Compound: COc1ccc(OCC2c3cccn3CCN2C(=O)c2cccc(Cl)c2)cc1 (stereo not shown) [25i, (3-Chlorophenyl)(1-((4-methoxyphenoxy)methyl)-3,4-dihydropyrrolo[1,2-a]pyrazin-2(1H)-yl)methanone]
- p(doubling conc.) at GluN2C/D [1]: 5.8–5.9

Compound: COc1ccc(OCC2c3cc(OC)c(OC)cc3CC(=O)N2Cc2cccc(Cl)c2)cc1 (stereo not shown) [12m, 2-(3-Chlorobenzyl)-6,7-dimethoxy-1-((4-methoxyphenoxy)-methyl)-1,4-dihydroisoquinolin-3(2H)-one]
- activity at GluN2A/B in words [2]: no activity

Compound: COc1ccc(OCC2c3cccn3CC(=O)N2Cc2cccc(C(F)(F)F)c2)cc1 (stereo not shown) [31a, 1-((4-Methoxyphenoxy)methyl)-2-(3-(trifluoromethyl)benzyl)-1,2-dihydropyrrolo[1,2-a]pyrazin-3(4H)-one]
- p(doubling conc.) at GluN2C/D [1]: 5.9–6.1
- inhibition of α4β2-nACh current response (α4β2-nACh): > 50%

Compound: COc1ccc(OCC2c3cc(OC)sc3CCN2C(=O)c2cccc(Cl)c2)cc1 (stereo not shown) [25d, (3-Chlorophenyl)(2-methoxy-4-((4-methoxyphenoxy)methyl)-6,7-dihydrothieno[3,2-c]pyridin-5(4H)-yl)methanone]
- EC50 (GluN1/GluN2C [6]): 5010 nM
- Emax (GluN1/GluN2C [6]; read-out: max (%) GluN2C): 220%

Compound: N#C[C@@H]1C[C@H]1c1c(Cl)ccc2nc(Cn3nc(C(F)(F)F)cc3Cl)cc(=O)n12 [GNE-5729]
- EC50 [7]: 37 nM

Compound: 1-((4-Ethoxyphenoxy)methyl)-2-(3-(trifluoromethyl)benzyl)-1,2-dihydropyrrolo[1,2-a]pyrazine-3(4H)-thione [compound 32]
- activity at GluN2C/D in words [1]: complete loss of activity
- max (%) GluN2C, pEC50 ND: percent potentiation at 30 μM drug (GluN1/GluN2C [8]): ND (120) %
- max (%) GluN2D, pEC50 ND: percent potentiation at 30 μM drug (GluN1/GluN2D): ND (110) %

Compound: COc1cc2c(cc1OC)C(COC1CCOCC1)N(C(=O)c1cccc(C(F)(F)F)c1)CC2 (stereo not shown) [18d, (6,7-Dimethoxy-1-(((tetrahydro-2H-pyran-4-yl)oxy)methyl)-3,4-dihydroisoquinolin-2(1H)-yl)(3-(trifluoromethyl)phenyl)methanone]
- activity at GluN2C/D in words [1]: not tolerated

Compound: COc1ccc(OCC2c3cc(OC)c(OC)cc3CCN2C(=O)c2cccc(Cl)c2)cc1 (stereo not shown) [CIQ, (3-chlorophenyl)(6,7-dimethoxy-1-((4-methoxyphenoxy)-methyl)-3,4-dihydroisoquinolin-2(1H)-yl)methanone]
- bound to rat plasma protein [4]: > 99.9%
- Cmax (ng/mL), plasma ([9]; 1:4:5 dimethylacetamide:PEG400:(5% dextrose in water)): 2090 ± 20 ng/mL
- t1/2 (h), plasma [9]: 1.35 ± 0.12 h

Compound: COc1ccc(OCC2c3ccc(OC)cc3CC(=O)N2CCCC(F)(F)F)cc1 (stereo not shown) [12f, 6-Methoxy-1-((4-methoxyphenoxy)methyl)-2-(4,4,4-trifluorobutyl)-1,2-dihydroisoquinolin-3(4H)-one]
- p(doubling conc.) at GluN2C/D [1]: 5.0–5.1
